Measured values: US20140206629A1, “Stromal Derived Factor Inhibition And CXCR4 Blockade” (RHODE ISLAND HOSPITAL, priority 2011, published 2014)
Entries after “also recorded” stand apart in the source; their conditions may differ.

How the values were obtained:
[1] = tested on: IL-1β induced SDF-1 expression in human subacromial bursal cells; assay: SDF-1α protein (ELISA) in supernatants of IL-1β-treated cultured bursal cells with inhibitors; assay type: cell-based; conditions: bursal cells treated with IL-1β 20 ng/mL plus inhibitor
Procedure: (§1) Human subacromial bursal biopsy specimens were obtained as above. Tissues were washed with Hank's balanced salt solution (Gibco), minced with scissors, and resuspended in Dulbecco's minimum essential medium (DMEM, Gibco) containing 1 mg/ml collagenase, 0.15 mg/ml DNase, and 0.15 mg/ml hyaluronidase. The tissue was enzymatically digested for 2 hours at 37° C. and then passed through sterile gauze to remove any undigested fragments. Cells were seeded in 75 cm2 flasks with DMEM supplemented with 10% fetal bovine serum (FBS), 100 U/ml penicillin, 100 μg/ml streptomycin, and 0.1% fungizone (amphotericin B) and grown at 37° C. in a humidified atmosphere of 5% CO2 and 95% air. Subcultures were performed with Trypsin-EDTA treatment (Gibco).
Subacromial bursal cells were cultured as above. After the first passage, cells were plated into 6-well plates and grown to 85% confluence. Wells were then treated (in triplicate) with IL-1β 20 ng/mL and respective inhibitors (AMD3100, T140 analog, dexamethasone or NSAID). After 24 hours, supernatants were collected and assayed for SDF-1α expression using Quantikineâ Human SDF-1α enzyme immunoassay kit (R & D System) according to the manufacturer's instructions. Standard curves were reconstituted using SDF-1α protein. The optical density of each well was determined using a microplate reader set to 450 nm wavelength. […]

[2] = tested on: IL-1β induced SDF-1 mRNA expression in human subacromial bursal cells; assay: SDF-1α mRNA (RT-PCR) in IL-1β-treated cultured bursal cells with inhibitors; assay type: cell-based; conditions: bursal cells treated with IL-1β plus inhibitor
Procedure: Subacromial bursal cells were cultured as above. First-passaged cells were treated with IL-1β and respective inhibitors as above. Total RNA was isolated using Qiagen RNeasy Mini Kit (Qiagen, Valencia, Calif.). First-strand cDNA was synthesized using 1 μg of total RNA and Superscript III™ First-Strand Synthesis System (Invitrogen). […] All PCR were performed in 25-μl reactions on a DNA Engine Opticon™ 2 Detection System (MJ Research, Hercules, Calif.) for 40 cycles in which each cycles consisted of 15 sec at 95° C., 15 sec at 60° C., and 20 sec at 72° C. Results were standardized to GAPDH housekeeping gene. Statistical analysis was performed using the student's t-test. […]

[3] = tested on: human subacromial bursal cells; assay: Cell migration assay of bursal cells in response to SDF-1 stimulation; assay type: cell-based; conditions: in the presence of CXCR4 inhibitor
From the text: FIG. 6 is a bar graph showing cell migration assay of human subacromial bursal cells in the presence of CXCR4 inhibitors AMD3100 and T140.

CCR5 = CCR5 (Homo sapiens, UniProt P51681); conditions: cited from earlier work
Sequence of CCR5 (P51681 whole entry): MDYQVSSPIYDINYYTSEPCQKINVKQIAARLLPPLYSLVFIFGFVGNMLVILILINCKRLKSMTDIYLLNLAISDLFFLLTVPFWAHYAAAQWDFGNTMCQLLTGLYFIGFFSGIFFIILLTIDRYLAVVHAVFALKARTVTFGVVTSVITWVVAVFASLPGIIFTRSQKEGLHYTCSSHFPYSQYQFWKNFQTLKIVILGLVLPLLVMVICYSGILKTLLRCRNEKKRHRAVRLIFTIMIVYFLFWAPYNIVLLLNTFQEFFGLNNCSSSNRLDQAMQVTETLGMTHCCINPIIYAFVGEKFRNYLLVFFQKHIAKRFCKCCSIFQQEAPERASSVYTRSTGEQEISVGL

[4] = tested on: human subacromial bursal cells; assay: Cytokine stimulation of SDF-1α protein production in cultured bursal cells (ELISA); assay type: cell-based
Procedure: as §1
SDF-1 expression was induced by stimulating bursal cells with IL-1β. SDF-1 levels were measured in cell supernatants and mRNA levels were tested using real-time RT-PCR at various time points. SDF-1 expression increased with time and occurred in a dose-dependent fashion. […] (FIG. 3) These experiments were reproducible with cells grown from several different tissue samples.
(§2) Subacromial bursa specimens were obtained from patients undergoing shoulder surgery. […] Early-passaged cells were then treated with cytokines ([…] and IL-6) and SDF-1α expression was measured by ELISA and RT-PCR.

[5] = tested on: human subacromial bursal cells; assay: Cytokine stimulation of SDF-1α mRNA expression in cultured bursal cells (RT-PCR); assay type: cell-based; conditions: cytokine-treated bursal cells vs controls; maximal at 24 hours
Procedure: as §1
Subacromial bursal cells were cultured as above. […] SDF-1 mRNA was quantified with SDF-1 specific primers SDF-1FOR (5′-GATTGTAGCCCGGCT GAAGAA-3′) (SEQ ID NO: 11) and SDF-1BACK (5′-[…]-3′) (SEQ ID NO: 12). […]
SDF-1 expression was induced by stimulating bursal cells with IL-1β. SDF-1 levels were measured in cell supernatants and mRNA levels were tested using real-time RT-PCR at various time points. […]
as §2

From the text for rat rotator cuff tendons: 58 male Lewis rat shoulders underwent surgery using an IACUC approved protocol. The infraspinatus tendon was transected at its insertion to create a tendon defect (FIG. 7). […] Animals were sacrificed at 3, 7, 14, 28 or 42 days. Eight uninjured rat shoulders were used as controls. Preconditioned for 5 cycles to 0.38 mm displacement in tension at a rate of 0.1 mm/s Stress relaxation test for 300 s duration at 0.38 displacement in tension Return to 0.2 N tension followed by a 300 s latency period Tension to failure at a displacement rate of 0.1 mm/s

Row | Molecule | decrease of SDF-1α protein production/expression in supernatants [1] [%] | SDF-1α mRNA expression [2] | bursal cell migration in response to SDF-1 stimulation [3] | inflammation in the subacromial bursa (rat rotator cuff tendons; rat shoulder with experimentally induced rotator cuff injury) | maximum load in the infraspinatus bone-tendon complex compared to controls (PBS) (rat rotator cuff tendons; rat, osmotic minipump, 3, 7, 14, 28 or 42 days post injury) | binding to chemokine receptor CCR5 (CCR5) | increase in SDF-1α protein production/expression ([4]; cytokine-treated bursal cells) | SDF-1α production, maximal stimulation ([4]; exposure to 20 ng/ml IL-1β) [pg/10^4 cells] | increase in SDF-1α gene (mRNA) expression [5]
1 | c1cc(CN2CCCNCCNCCCNCC2)ccc1CN1CCCNCCNCCCNCC1 [AMD3100, 1,1′-[1,4-phenylenebis(methylene)]-bis-1,4,8,11-azatetradecane] | 40 | only a slight decrease | decreased | reduced inflammation | No statistically significant differences | does not bind |  |  | 
2 | C[C@@H]1C[C@H]2[C@@H]3CCC4=CC(=O)C=C[C@]4(C)[C@@]3(F)[C@@H](O)C[C@]2(C)[C@@]1(O)C(=O)CO [dexamethasone] | 87 |  |  |  |  |  |  |  | 
3 | IL-1β |  |  |  |  |  |  | more than five-fold increase | 630 | nearly five-fold increase; also recorded: more than five-fold increase
